Tests used:
Meniere's disease = settings: existing drug (diuretic drug); cited from earlier work
[1] = tested on: patients suffering from acute low-tone sensorineural hearing loss; assay: clinical test in patients with acute low-tone sensorineural hearing loss (Example 2); type: in vivo; settings: for Hearing in the sound ear 500 Hz: before administration 10 dB; for Hearing in the sound ear 250 Hz: before administration 15 dB; for Hearing in the sound ear Average hearing level: before administration 17 dB; for Hearing in the sound ear 125 Hz: before administration 25 dB; for Hearing in the affected ear 500 Hz: before administration 35 dB; for Hearing in the affected ear 125 Hz: before administration 40 dB; for Hearing in the affected ear Average hearing level: before administration 42 dB; for Hearing in the affected ear 250 Hz: before administration 50 dB
Protocol: Pranlukast hydrate (trade name: Onon capsule) was administered to the patients suffering from acute low-tone sensorineural hearing loss concurrently with a feeling of fullness in the left ear at a daily dose of 450 mg (two capsules each containing 112. 5 mg given individually after breakfast and dinner) for two months to investigate into the efficacy against hearing impairment, the major complaint. In connection to the above test, it is to be noted that selection of patients was performed in accordance with a draft of the Criteria for Diagnosis proposed by Study Group for Acute Severe Hearing Loss of the Ministry of Health, Labor and Welfare of Japan (refer to Audiology Japan., 45, 161-166 (2002)).

mice = assay: acute toxicity, minimum lethal dose; type: in vivo; settings: male and female, orally or subcutaneously
[2] = tested on: patients afflicted with Meniere's disease; assay: clinical pharmacological test in patients afflicted with Meniere's disease (Example 1); type: in vivo; settings: 450 mg daily
Protocol: Pranlukast hydrate (trade name: onon capsule) was administered to 19 patients afflicted with Meniere's disease at a daily dose of 450 mg (two capsules each containing 112.5 mg individually after breakfast and after dinner) for the period of not less than three weeks (up to 24 weeks max.) to test and determine the efficacy. The overall efficacy (therapeutic) assessment was performed mainly on the basis of the results of nystagmus and hearing tests, while also taking into consideration the subjective symptoms (rotary vertigo, tinnitus, a feeling of fullness in ear, hearing rimpairment, etc.) and the extent or degree of hearing impairment (average hearing, method of quartering). In consequence of this, the efficacy was recognized and determined in 17(89.5%) out of 19 patients afflicted with Meniere's disease.

rats = assay: acute toxicity, minimum lethal dose; type: in vivo; settings: male and female, orally or subcutaneously

O[C@@H]1CO[C@H]2[C@@H]1OC[C@@H]2O [isosorbide]
efficacy against hearing impairment, tinnitus and a feeling of fullness in the ear (Meniere's disease): hardly been found to exhibit the efficacy

O=C(Nc1cccc2c(=O)cc(-c3nnn[nH]3)oc12)c1ccc(OCCCCc2ccccc2)cc1 [pranlukast hydrate, 4-oxo-8-[4-(4-phenylbutoxy)benzoylamino]-2-(tetrazol-5-yl)-4H-1-benzopyran ½ hydrate]
average hearing level recovered ([1]; 450 mg daily, after one month of administration, affected ear): 19 dB | efficacy evaluation (healed/ameliorated/unchanged/worsened) ([1]; 450 mg daily, after two months of administration): healing | effect on subjective symptoms and hearing ([1]; 450 mg daily, within one week of administration): tendency of amelioration | Hearing in the sound ear 500 Hz ([1]; after one month): 15 dB | Hearing in the sound ear 250 Hz ([1]; after one month): 15 dB | Hearing in the sound ear Average hearing level ([1]; after one month): 18 dB | Hearing in the sound ear 125 Hz ([1]; after one month): 25 dB | Hearing in the affected ear 500 Hz ([1]; after one month): 15 dB | Hearing in the affected ear 125 Hz ([1]; after one month): 30 dB | Hearing in the affected ear Average hearing level ([1]; after one month): 23 dB | Hearing in the affected ear 250 Hz ([1]; after one month): 25 dB | Hearing in the sound ear 500 Hz ([1]; after two months): 10 dB | Hearing in the sound ear 250 Hz ([1]; after two months): 15 dB | Hearing in the sound ear Average hearing level ([1]; after two months): 17 dB | Hearing in the sound ear 125 Hz ([1]; after two months): 25 dB | Hearing in the affected ear 500 Hz ([1]; after two months): 10 dB | Hearing in the affected ear 125 Hz ([1]; after two months): 25 dB | Hearing in the affected ear Average hearing level ([1]; after two months): 18 dB | Hearing in the affected ear 250 Hz ([1]; after two months): 20 dB | minimum lethal dose (mice): not less than 2000 mg/kg | overall efficacy, patients in whom efficacy was recognized ([2]; oral, not less than three weeks (up to 24 weeks), 17 out of 19 patients): 89.5% | effective rate in patients suffering from vertigo (rotary vertigo or stagger) ([2]; 6 out of 6 patients): 100% | efficacy in patients complaining of the subjective symptoms ([2]; 15 out of 19 patients): 78.9% | efficacy in patients suffering from hearing impairment ([2]; 15 out of 19 patients): 78.9% | minimum lethal dose (rats): not less than 2000 mg/kg
